# Test results as given in patent publication US7122570B2, “Tetrahydrocarbazol derivatives as ligands for G-protein-coupled receptors (GPCR)” (Zentaris AG, priority 2001, dated 2006).
# Columns and labels:
# GnRH receptor = molecular target: T1, GnRH receptor (Homo sapiens, UniProt P30968); assay: Ca2+ release, human; assay type: cell-based; settings: read-out: Ca^2+ Release Human IC50
# T1 sequence (P30968 1-328): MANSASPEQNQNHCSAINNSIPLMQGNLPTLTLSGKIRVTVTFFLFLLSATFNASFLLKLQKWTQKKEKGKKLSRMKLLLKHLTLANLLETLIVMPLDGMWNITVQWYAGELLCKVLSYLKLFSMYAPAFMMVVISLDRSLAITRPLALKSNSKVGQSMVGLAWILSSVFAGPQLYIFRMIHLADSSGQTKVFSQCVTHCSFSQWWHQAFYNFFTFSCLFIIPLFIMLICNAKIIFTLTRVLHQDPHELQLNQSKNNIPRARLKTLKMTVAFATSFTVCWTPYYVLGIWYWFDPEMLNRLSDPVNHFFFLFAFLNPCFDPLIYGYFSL
# hGnRH-Receptor = molecular target: T2, hGnRH-Receptor (Homo sapiens, UniProt P30968); assay: GnRH receptor assay: competition binding with 125I-labeled buserelin on cell membranes; settings: competition with 125I-buserelin
# T2 construct: expressed in transfected cells; host or cells: CHO-3 cells (Schmid et al., J. Biol. Chem. 275 (2000), 9193-9200), membrane preparation
# T2 sequence (P30968 1-328): T1 sequence (P30968 1-328)
# Experimental: Buserelin is ordered from Welding (Frankfurt/Main, Germany). The compound is labeled with ^125I by use of the chloramine T-method and Na^125I (4000 Ci/mmol; Amersham-Buchler, Brunswick, Germany). The labeled substance is purified by reverse phase HPLC on a Spherisorb ODS II column (250×4 mm, particle size 3 μm) by elution with 50% acetonitrile/0.15% trifluoroacetic acid at a flow rate of 0.5 ml/minute. The specific activity is 2000 Ci/mmol.
# Alpha T3-1 cells (Bilezikjian et al., Mol. Endocrinol 5 (1991), 347–355) are cultivated in DMEM medium (Gibco-BRL, Eggenstein-Leopoldshafen, Germany) with penicillin (100 I.U./ml), streptomycin (0.1 mg/ml) and glutamine (0.01 mol/l) and 10% fetal calf serum (FCS; PAA Laboratories, Coelbe, Germany) on plastic tissue culture plates (Nunc, 245×245×20 mm). CHO-3 cells (Schmid et al., J. Biol. Chem. 275 (2000), 9193–9200) are cultivated under identical conditions, apart from the fact that Ham's F12 medium (Gibco-BRL) is used.
# Ten confluent cell culture plates are flushed twice with 50 ml of phosphate-buffered salt solution (PBS). The cells are harvested by scraping them off with a rubber scraper in 5 ml of PBS and sedimented by centrifuging in a laboratory centrifuge (Heraeus) at 800 rpm for 10 minutes. The cell pellet is resuspended in 5 ml of 0.25 mol/l of saccharose/0.01 mol/l of triethanolamine, pH 7.4. The cells are lysed by three cycles of freezing in dry ice/ethanol bath and thawing at room temperature. The lysate is centrifuged at 900 rpm for 10 minutes, and the sediment is discarded. The supernatant is centrifuged at 18,000 rpm in a Sorvall SS34 rotor for 30 minutes. The pellet (cell membranes) is suspended by Potters in 5 ml of assay buffer (0.25 mol/l of saccharose, 0.01 mol/l of triethanolamine, pH 7.5, 1 mg/ml of ovalbumin) and stored in 200 μl of aliquots at −20° C. The determination of protein is carried out according to the Bradford method (Anal. Biochem. 72 (1976), 248–254).
# Binding studies for competition curves are performed as triplicates. A test sample contains 60 μl of cell membrane suspension (10 μg of protein for αT3-1 cells or 40 μg of protein for CHO3 cells), 20 μl of ^125I-labeled buserelin (100,000 Ipm per sample for competition curves and between 1,500 and 200,000 Ipm for saturation experiments) and 20 μl of test buffer or test compound solution. The test compounds are dissolved in distilled water or 50% ethanol. Serial dilutions (5×10^−6 mol/l to […]) are produced in test buffer. The unspecific binding is determined in the presence of excess unlabeled buserelin (10^−6 mol/1). The test samples are incubated for 30 minutes at room temperature. Bonded and free ligands are separated by filtration (Whatman GF/C-filter, 2.5 cm diameter) with use of an Amicon 10x collecting device and washed twice with 5 ml of 0.02 mol/l of Tris/HCl, pH 7.4. The filters are moistened with 0.3% polyethylenimine (Serva; Heidelberg, Germany) for 30 minutes to reduce the unspecific binding. The radioactivity that was held up by the filter is determined in a 5-channel gamma-counter (Wallac-LKB 1470 Wizard).
# In the table below, the IC50 values that are obtained for the preferred compounds, as defined above, are indicated.
IC50 (GnRH receptor) [nM],IC50 (hGnRH-Receptor) [nM],SMILES
5000,900,"CC(C)C(NC(=O)C1(NC(=O)C(Cc2ccccc2)c2ccccc2)CCc2[nH]c3ccccc3c2C1)C(=O)NC(CC(N)=O)C(N)=O [Compound 18, N-[[(3R)-2,3,4,9-Tetrahydro-3-[(1-oxo-2,3-diphenyl-propyl)amino]-1H-carbaol-3-yl]-carbonyl]-L-valyl-L-aspartamide]"
1000,2000,"CC[C@H](C)[C@H](NC(=O)CCc1ccccc1)C(=O)N[C@]1(C(=O)N[C@H](C(=O)N[C@@H](CC(N)=O)C(N)=O)C(C)C)CCc2[nH]c3ccccc3c2C1 [Compound 22, N-[[(3R)-2,3,4,9-Tetrahydro-3-[[(2S,3S)-3-methyl-1-oxo-2-[(1-oxo-3-phenylpropyl)amino]-pentyl]amino]-1H-carbazol-3-yl]carbonyl]-L-valyl-L-aspartamide]"
1000,300,"CC[C@H](C)[C@H](NC(=O)OCc1ccccc1)C(=O)N[C@]1(C(=O)N[C@H](C(=O)Nc2ccc(C(N)=O)cc2)C(C)C)CCc2[nH]c3ccccc3c2C1 [Compound 45, Phenylmethyl [(1S,2S)-1-[[[(3R)-3-[[[(1S)-1-[[[4-(aminocarbonyl)phenyl]amino]carbonyl]-2-methylpropyl]amino]carbonyl]-2,3,4,9-tetrahydro-1H-carbazol-3-yl]amino]carbonyl]-2-methylbutyl]carbamate]"
370,300,"CC[C@H](C)[C@H](NC(=O)OCc1ccccc1)C(=O)N[C@]1(C(=O)N[C@H](C(N)=O)C(C)C)CCc2[nH]c3ccccc3c2C1 [Compound 58, Phenylmethyl [(1S,2S)-1-[[[(3R)-3-[[[(1S)-1-(aminocarbonyl)-2-methylpropyl]amino]-carbonyl]-2,3,4,9-tetrahydro-1H-carbazol-3-yl]-amino]carbonyl]-2-methylbutyl]carbamate]"
1500,1700,"CC[C@H](C)[C@H](NC(=O)[C@@]1(NC(=O)[C@@H](NC(=O)OCc2ccccc2)[C@@H](C)CC)CCc2[nH]c3ccccc3c2C1)C(N)=O [Compound 64, Phenylmethyl [(1S,2S)-1-[[[(3R)-3-[[[(1S,2S)-1-(aminocarbonyl)-2-methylbutyl]amino]-carbonyl]-2,3,4,9-tetrahydro-1H-carbazol-3-yl]-amino]carbonyl]-2-methylbutyl]carbamate]"
2000,2400,"CC(C)[C@H](NC(=O)[C@@]1(NC(=O)Cc2ccc(F)cc2)CCc2[nH]c3ccccc3c2C1)C(N)=O [Compound 91, (3R)-N-[(1S)-1-(Aminocarbonyl)-2-methyl-propyl]-3-[[(4-fluorophenyl)acetyl]amino]-2,3,4,9-tetrahydro-1H-carbazole-3-carboxamide]"
3000,4000,"CC(C)[C@H](NC(=O)[C@@]1(NC(=O)Cc2cccc(Br)c2)CCc2[nH]c3ccccc3c2C1)C(N)=O [Compound 96, (3R)-N-[(1S)-1-(Aminocarbonyl)-2-methyl-propyl]-3-[[(3-bromophenyl)acetyl]-amino]-2,3,4,9-tetrahydro-1H-carbazole-3-carboxamide]"
250,76,"CC[C@H](C)[C@H](NC(=O)OCc1ccccc1)C(=O)N[C@]1(C(=O)N[C@H](C(N)=O)C(C)C)CCc2[nH]c3c(OC)cccc3c2C1 [Compound 147a, Phenylmethyl [(1S,2S)-1-[[[(3R)-3-[[[(1S)-1-(aminocarbonyl)-2-methypropyl]amino]-carbonyl]-2,3,4,9-tetrahydro-8-methoxy-1H-carbazol-3-yl]amino]carbonyl]-2-methylbutyl]carbamate]"
140,80,"CC[C@H](C)[C@H](NC(=O)OCc1ccccc1)C(=O)N[C@]1(C(=O)N[C@H](C(N)=O)C(C)C)CCc2[nH]c3ccc(Cl)cc3c2C1 [Compound 148a, Phenylmethyl [(1S,2S)-1-[[[(3R)-3-[[[(1S)-1-(aminocarbonyl)-2-methylpropyl]amino]-carbonyl]-6-chloro-2,3,4,9-tetrahydro-1H-carbazol-3-yl]amino]carbonyl]-2-methylbutyl]carbamate]"
280,110,"CC[C@H](C)[C@H](NC(=O)OCc1ccccc1)C(=O)N[C@]1(C(=O)N[C@H](C(N)=O)C(C)C)CCc2[nH]c3c(C)cccc3c2C1 [Compound 150a, Phenylmethyl [(1S,2S)-1-[[[(3R)-3-[[[(1S)-1-(aminocarbonyl)-2-methylpropyl]amino]-carbonyl]-2,3,4,9-tetrahydro-8-methyl-1H-carbazol-3-yl]amino]carbonyl]-2-methylbutyl]carbamate]"
6500,6000,"CC(C)[C@H](NC(=O)[C@]1(NC(=O)Cc2c[nH]c3ccccc23)CCc2[nH]c3ccccc3c2C1)C(N)=O [Compound 164b, (3S)-N-[(1S)-1-(Aminocarbonyl)-2-methyl-propyl]-2,3,4,9-tetrahydro-3-[(1H-indol-3-yl-acetyl)amino]-1H-carbazole-3-carboxamide]"
2600,1000,"CC(C)[C@H](NC(=O)[C@@]1(NC(=O)Cc2ccc(Cl)cc2)CCc2[nH]c3ccccc3c2C1)C(N)=O [Compound 167a, (3R)-N-[(1S)-1-(Aminocarbonyl)-2-methyl-propyl]-3-[[(4-chlorophenyl)acetyl]amino]-2,3,4,9-tetrahydro-1H-carbazole-3-carboxamide]"
1800,8000,"COc1ccc(CC(=O)NC2(C(=O)N[C@H](C(N)=O)C(C)C)CCc3[nH]c4ccccc4c3C2)cc1 (stereo partly drawn) [Compound 175, N-[(1S)-1-(Aminocarbonyl)-2-methylpropyl]-2,3,4,9-tetrahydro-3-[[(4-methoxyphenyl)-acetyl]amino]-1H-carbazole-3-carboxamide]"
3000,700,"CC[C@H](C)[C@H](NC(=O)OCc1ccccc1)C(=O)N[C@]1(C(=O)N2CCC[C@H]2C(N)=O)CCc2[nH]c3ccccc3c2C1 [Compound 181a, Phenylmethyl [(1S,2S)-1-[[[(3R)-3-[[(2S)-2-(aminocarbonyl)-1-pyrrolidinyl]carbonyl]-2,3,4,9-tetrahydro-1H-carbazol-3-yl]amino]-carbonyl]-2-methylbutyl]carbamate]"
45,15,"CC[C@H](C)[C@H](NC(=O)OCc1ccccc1)C(=O)N[C@]1(C(=O)N[C@H](C(N)=O)C(C)C)CCc2[nH]c3c(Cl)cc(Cl)cc3c2C1 [Compound 184a, Phenylmethyl [(1S,2S)-1-[[[(3R)-3-[[[(1S)-1-(aminocarbonyl)-2-methylpropyl]amino]-carbonyl]-6,8-dichloro-2,3,4,9-tetrahydro-1H-carbazol-3-yl]amino]carbonyl]-2-methylbutyl]-carbamate]"

SMILES,IC50 (GnRH receptor) [nM],IC50 (hGnRH-Receptor) [nM]
"CC(C)C(NC(=O)C1(NC(=O)Cc2ccc3ccccc3c2)CCc2[nH]c3ccccc3c2C1)C(N)=O [Compound 161b, (3S)-N-[(1S)-1-(Aminocarbonyl)-2-methyl-propyl]-2,3,4,9-tetrahydro-3-[(2-naphthalenyl-acetyl)amino]-1H-carbazole-3-carboxamide]",3600,3700
